“Also recorded” adds a separate entry of the source.
Key:
[1] = test system: whole cell conductances of PC-3 cells; assay: Whole cell patch clamp, PC-3 cells; assay type: cell-based, human; conditions: iberiotoxin 30 nM, preliminary
LNCaP = assay: Growth (cell count) of LNCaP under iberiotoxin/17β-estradiol treatment; assay type: cell-based, human; conditions: two days; for effect on estradiol-stimulated growth of LNCaP: 0.05 μM Iberiotoxin + 0.1 μM Estradiol
Procedure: (§1) “K” represents a control; “I” represents treatment with 0.05 μM Iberiotoxin (Sigma); “E” represents treatment with 0.1 μM Estradiol; and “E+I” represents treatment with both 0.05 μM Iberiotoxin and 0.1 μM Estradiol. Cells were grown in OPTI-MEM (Invitrogen) +0.4% Albu-max (Invitrogen) for two days.
(§2) Cell culture: As standard, the cells were grown in OPTIMEM (Invitrogen) containing 10% FCS (Amimed) and 1% Pen/Strep (Amimed). For iberiotoxin/17β-estradiol treatment 25000 cells were seeded in OPTIMEM, 10% FCS into 6 well plates (Falcon). After one day incubation, the medium was changed to OPTIMEM 1%FCS, 1% Pen/Strep. After another day of incubation the experiment was started by changing the Medium to OPTIMEM 0.4% Albumax (Invitrogen), 1% Pen/Strep containing either only solvents, 50 nM iberiotoxin (Sigma), 100 nM 17β-estradiol (Sigma), or a combination of both. After two days of incubation, the cells were collected and counted.

BPH-1 = assay: Growth (cell count) of BPH-1 under iberiotoxin/17β-estradiol treatment; assay type: cell-based, human; conditions: two days; for effect on estradiol-stimulated growth of BPH-1: 0.05 μM Iberiotoxin + 0.1 μM Estradiol
Procedure: as §1, §2

PC-3 = assay: Growth (cell count) of PC-3 under iberiotoxin/17β-estradiol treatment; assay type: cell-based, human; conditions: two days
Procedure: as §1, §2

[2] = test system: whole cell conductances of BPH-1 cells; assay: Whole cell patch clamp, BPH-1 cells; assay type: cell-based, human; conditions: iberiotoxin 30 nM, preliminary
[3] = biological target: T1, potassium channels in membrane patches of PC-3 cells (Homo sapiens, UniProt Q12791); assay: Patch clamp, cell excised inside/out membrane patches of PC-3 cells; assay type: cell-based; conditions: preliminary
T1 construct: endogenous in cells; host or cells: PC-3 prostate cancer cells (excised inside/out membrane patches)
Excerpt: (§3) Numerous channels are active under high (1 mmol/l) intracellular Ca^2+ concentration in the membrane patch from PC-3 cells (A), thus single channel currents cannot be resolved. In contrast, little channel activity is present in the BPH-1 membrane patch (B).
(§4) Patch clamp recording was used to further assess the role of KCNMA1.
(§5) The membrane voltage of PC-3 cells is hyperpolarized when compared with that of BPH-1 cells. Moreover, paxillin inhibited potassium channels in cell excised inside/out membrane patches of PC-3 cells, but not in membrane patches of BPH-1 cells. In cell excised inside/out membrane patches of PC-3 cells we found pronounced activity of Ca^2+ activated K^+ channels, while little channel activity was found in excised membrane patches of BPH-1 cells (FIG. 10). Removal of Ca^2+ from the cytosolic side (0 mmol/l) abolished channel activity in both membrane patches of PC-3 and BPH-1 cells. Channel activity was recovered at cytosolic Ca^2+ concentrations of 1 μmol/l (0.001). These preliminary results fit very well to the expression data of KCNMA1 obtained so far.

[4] = test system: potassium channels in membrane patches of BPH-1 cells; assay: Patch clamp, cell excised inside/out membrane patches of BPH-1 cells; assay type: cell-based, human; conditions: preliminary
Excerpt: as §3, §4, §5

[5] = 50 nM iberiotoxin, listed as Iberiotoxin
[6] = 100 nM 17β-estradiol, listed as 17β-estradiol

T1 sequence (Q12791 whole entry): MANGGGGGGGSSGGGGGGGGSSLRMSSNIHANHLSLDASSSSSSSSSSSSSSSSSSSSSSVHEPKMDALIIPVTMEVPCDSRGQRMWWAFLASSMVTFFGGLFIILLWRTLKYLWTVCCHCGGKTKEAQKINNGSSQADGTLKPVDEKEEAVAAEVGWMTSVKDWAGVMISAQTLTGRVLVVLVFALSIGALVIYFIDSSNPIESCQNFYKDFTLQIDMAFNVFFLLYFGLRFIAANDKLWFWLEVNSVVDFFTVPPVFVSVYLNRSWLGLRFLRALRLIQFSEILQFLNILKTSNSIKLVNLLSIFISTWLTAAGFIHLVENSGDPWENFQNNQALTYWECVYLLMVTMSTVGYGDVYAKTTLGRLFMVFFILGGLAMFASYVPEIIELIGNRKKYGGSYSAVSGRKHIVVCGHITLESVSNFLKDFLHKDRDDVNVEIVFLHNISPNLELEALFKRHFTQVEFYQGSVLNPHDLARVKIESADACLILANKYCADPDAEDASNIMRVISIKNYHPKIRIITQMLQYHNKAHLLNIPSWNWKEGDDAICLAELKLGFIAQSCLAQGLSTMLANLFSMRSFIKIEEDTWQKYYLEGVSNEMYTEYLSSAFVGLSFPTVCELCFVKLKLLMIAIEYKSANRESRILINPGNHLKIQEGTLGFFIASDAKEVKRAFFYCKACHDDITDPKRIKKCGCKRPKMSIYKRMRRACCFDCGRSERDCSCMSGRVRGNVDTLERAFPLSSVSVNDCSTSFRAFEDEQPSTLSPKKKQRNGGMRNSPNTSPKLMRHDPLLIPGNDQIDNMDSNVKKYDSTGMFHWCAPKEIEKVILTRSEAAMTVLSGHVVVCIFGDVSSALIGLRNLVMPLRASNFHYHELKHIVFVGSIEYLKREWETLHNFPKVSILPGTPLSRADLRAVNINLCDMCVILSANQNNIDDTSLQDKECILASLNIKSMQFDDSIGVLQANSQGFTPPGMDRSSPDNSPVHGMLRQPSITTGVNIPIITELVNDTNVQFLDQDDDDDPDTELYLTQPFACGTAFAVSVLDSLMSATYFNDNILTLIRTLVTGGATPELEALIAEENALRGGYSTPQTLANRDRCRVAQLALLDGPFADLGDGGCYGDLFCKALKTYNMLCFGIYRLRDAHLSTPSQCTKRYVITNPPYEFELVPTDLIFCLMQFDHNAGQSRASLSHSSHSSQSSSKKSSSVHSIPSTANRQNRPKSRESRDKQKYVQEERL

iberiotoxin (QFTDVDCSVSKECWSVCKDLFGVDRGKCMGKKCRCYQ; Iberiotoxin; UniProt P24663 1-37, looked up)
effect on whole cell conductances of PC-3 cells [1]: clear inhibitory effect | effect on estradiol-stimulated growth of LNCaP (LNCaP): completely reversed; also recorded: could be blocked | effect on estradiol-stimulated growth of LNCaP (LNCaP; listed as Iberiotoxin): blocked the growth stimulus | effect on growth of LNCaP (words) (LNCaP; 50 nM iberiotoxin): not and no significant effect and did not react | effect on growth of LNCaP (words) (LNCaP; [5]): no effect | effect on estradiol-stimulated growth of BPH-1 (BPH-1): completely reversed | effect on estradiol-stimulated growth of BPH-1 (BPH-1; listed as Iberiotoxin): blocked the growth stimulus | effect on growth of BPH-1 (words) (BPH-1; 50 nM iberiotoxin): not and no significant effect | effect on growth of BPH-1 (words) (BPH-1; [5]): no effect | reduction of the growth rate of PC-3 (PC-3; 0.05 μM Iberiotoxin, OPTI-MEM + 0.4% Albu-max): 10-15% | effect on growth of PC-3 (words) (PC-3; 50 nM iberiotoxin): significantly decreased growth rate; also recorded: significant reduction of the growth rate; also recorded: significant growth inhibition; also recorded: could be reduced | effect on whole cell conductances of BPH-1 cells [2]: no significant effects

C[C@]12CC[C@@H]3c4ccc(O)cc4CC[C@H]3[C@@H]1CC[C@@H]2O [estradiol, 17β-estradiol]
effect on growth of LNCaP (words) (LNCaP; 100 nM 17β-estradiol): growth promoting effect | effect on growth of LNCaP (words) (LNCaP; [6]): increased proliferation; also recorded: increased its growth rate | effect on growth of BPH-1 (words) (BPH-1; 100 nM 17β-estradiol): growth promoting effect | effect on growth of BPH-1 (words) (BPH-1; [6]): increased proliferation | effect on growth of PC-3 (words) (PC-3; 100 nM 17β-estradiol): not | effect on growth of PC-3 (words) (PC-3; [6]): no effect

CC(C)(O)[C@H]1O[C@H]2CC[C@@]3(C)[C@@](O)(CC[C@H]4Cc5c([nH]c6ccccc56)[C@@]43C)C2=CC1=O [paxillin]
inhibition of potassium channels in excised inside/out membrane patches of PC-3 cells [3]: inhibited | inhibition of potassium channels in excised inside/out membrane patches of BPH-1 cells [4]: not

— patent US20070292528A1, “Kcnma1 as a Therapeutic Target in Cancer Treatment” (priority 2003, published 2007)
